Tests used:
Assay type in all cases: in vivo, rat
[1] = system: STZ-rats; assay: Von Frey filament test in STZ diabetic rats; details: day 20 post-STZ; SDF-1α 10, 30, 100 μg/kg, IL-6 10 μg/kg s.c.
Protocol: (§1) Eight week-old male Sprague Dawley rats (Janvier, Le Genest Saint Isle, France) were randomly distributed in 6 experimental groups (n=10) as shown below.
(§2) Diabetes was induced by intravenous injection of a buffered solution of streptozotocin (Sigma, L'Isle d'Abeau Chesnes, France) at a dose of 55 mg/kg. STZ was prepared in 0.1 mol/l citrate buffer pH 4.5. The control group received an equivalent volume of citrate buffer. The day of STZ injection was considered as D0.
(§3) Treatment with SDF-1α with IL-6 or their matched vehicle was performed on daily basis from D11 to D40.
The rat was placed on a metallic grid floor. The nociceptive testing was done by inserting the Von Frey filament (Bioseb, France) through the grid floor and applying it to the plantar surface of the hind paw. A trial consisted of several applications of the different von Frey filaments (at a frequency of 1-1.5 s). The Von Frey filaments were applied from filament 10 g to 180 g. The pressure that produces a brisk withdrawal of hind paw was considered as threshold value. Cuttoff value was set to 180 g.

[2] = system: STZ-rats; assay: Hot plate 52° C. test in STZ diabetic rats; details: D40 post-STZ, SDF-1α 10, 30, 100 μg/kg, IL-6 10 μg/kg s.c.
Protocol: as §1, §2, §3
The animal was placed into a glass cylinder on a hot plate adjusted to 52° C. The latency of the first reaction was recorded (licking, brisk movement of the paws, little leaps or a jump to escape the heat) with a cutoff time of 30 s.

[3] = system: STZ-rats; assay: STZ diabetic neuropathy, electromyography (CMAP latency, SNCV); details: D25 post-STZ (similar profile at D40), IL-6 10 μg/kg s.c.; for sensory nerve conduction velocity (SNCV) of diabetic rats: SDF-1α 10, 30, 100 μg/kg (best effect 10 and 30 μg/kg); for CMAP latency of diabetic rats vs vehicle-treated diabetic rats: SDF-1α 10, 30, 100 μg/kg
Protocol: as §1
as §2, with “Control” for “The control”
(§4) Treatment with SDF-1α, with IL-6 or their matched vehicle was performed on daily basis from D11 to D40.
Planning of Experiments • Day −7: baseline (EMG) • Day 0: induction by the streptozotocin • Day 7: glycemia monitoring • Day 11: Onset of the treatment • Day 20: Von Frey test • Day 25: EMG monitoring • Day 40: EMG monitoring and HP 52° C. test • Day 41: sciatic nerves and skin biopsy samples were taken off for the histomorphometric analysis.
Electrophysiological recordings were performed using electromyograph (Keypoint, Medtronic, Boulogne-Billancourt, France). Rats were anaesthetized by intraperitoneal injection (IP) of 60 mg/kg ketamine chlorhydrate (Imalgene 500®, Rhône Mérieux, Lyon. France) and 4 mg/kg xylazin (Rompum 2%, Bayer Pharma, Kiel, Germany). The normal body temperature was maintained at […] with a heating lamp and controlled by a contact thermometer (Quick, Bioblock Scientific, Illkirch, France) placed on the tail surface.
Compound muscle action potential (CMAP) was recorded in the gastrocnemius muscle after stimulation of the sciatic nerve. A reference electrode and an active needle were placed in the hindpaw. A ground needle was inserted on the lower back of the rat. Sciatic nerve was stimulated with a single 0.2 ms pulse at a supramaximal intensity. The velocity of the motor wave was recorded.
Sensitive nerve conduction velocity (SNCV) was also recorded. The tail skin electrodes were placed as follows: a reference needle inserted at the base of the tail and an anode needle placed 30 mm away from the reference needle towards the extremity of the tail. A ground needle electrode was inserted between the anode and reference needles. The caudal nerve was stimulated with a series of 20 pulses (for 0.2 ms) at an intensity of 12.8 mA. The velocity was expressed in m/s.
Global analysis of the data was performed using one factor or repeated measure analysis of variance (ANOVA) and one-way ANOVA. When ANOVA indicated significant difference, Fisher Protected Least Significant Difference was used as post-hoc test to compare experimental groups with the group of diabetic rats treated with the vehicle. The level of significance was set at p≦0.05. Results are expressed as mean ±standard error of the mean (s.e.m.).

[4] = Body weight in streptozotocin (STZ) diabetic rats; details: daily s.c. D11 to D40 post-STZ; SDF-1α 10, 30, 100 μg/kg, IL-6 10 μg/kg
Protocol: as §1
as §2, with “Control” for “The control”
as §4

| Substance | threshold value in Von Frey test vs vehicle-treated diabetic rats [1] | threshold latency in the hot plate test [2] | sensory nerve conduction velocity (SNCV) of diabetic rats [3] | CMAP latency of diabetic rats vs vehicle-treated diabetic rats [3] | body weight of diabetic rats [4] |
| --- | --- | --- | --- | --- | --- |
| IL-6: reference (positive) control compound in nerve crush and STZ models [reference compound] | significant increase | significantly lowered | significantly improved | significant reduction | slight but significant increase |
| SDF-1α: Human recombinant chemokine SDF-1α (SEQ ID NO: 1), produced in house, expressed in E. Coli cells | significant increase | significantly lowered | significantly improved | significant reduction | slight but significant increase |

From patent US20080253996A1, “Use of Sdf-1 for the Treatment and/or Prevention of Neurological Diseases” (LABORATORIES SERONO SA, priority 2005, published 2008)
